Five compounds from patent publication US10052320B2, “Substituted quinoxalines as FGFR kinase inhibitors” (ASTEX THERAPEUTICS LIMITED, priority 2011, dated 2018) can be followed below.

Holding throughout (type): cell-based
The target of assay [1] is Ba/F3-FGFR3-transfected cells (Homo sapiens, UniProt P22607). The experiment in a line: Ba/F3-FGFR3 (minus IL3) cellular proliferation assay, Alamar Blue. The following applies: minus IL3, 384 well. In short, it runs like this:
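Ba/F3-FGFR3 cells in phenol red-free RPMI-1640/10% FBS exposed to compound 24 h at 37° C., then Alamar Blue (resazurin) 4 h; fluorescence ex 540/em 590 nm. Run at 20000 cells/well (384-well) or 10000 cells/well (96-well); counterscreen identical but with 10 ng/ml murine IL3.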
For orientation: Alamar Blue is a resazurin reagent that responds to reducing activity.

The subject of assay [2] is Ba/F3-FGFR3-transfected cells in the presence of 10 ng/ml murine IL3. The experiment in a line: Ba/F3-FGFR3 (plus IL3) cellular proliferation counterscreen, Alamar Blue. The following applies: Mus musculus; plus 10 ng/ml murine IL3; 384 well; read-out: BAF3-FGFR 3 (PLUS IL3) 384 well pIC50 (converted). How it is done:
Ba/F3-FGFR3 (Minus IL3 or Plus IL3) (Cellular Proliferation Assay)
(§1) In a 384 well plate, 100 nl of compound dilution in DMSO was sprayed before adding 50 μl cell culture medium (phenol red free RPMI-1640, 10% FBS, 2 mM L-Glutamine and 50 μg/ml Gentamycin) containing 20000 cells per well of Ba/F3-FGFR3-transfected cells. Cells were put in an incubator at 37° C. and 5% CO2. After 24 hours, 10 μl of Alamar Blue solution (0.5 mM K3Fe(CN)6, 0.5 mM KaFe(CN)6, 0.15 mM Resazurin and 100 mM Phosphate Buffer) was added to the wells, incubated for 4 hours at 37° C. and 5% CO2 before RFU's (Relative Fluorescence Units) (ex. 540 nm., em. 590 nm.) were measured in a flurorescence plate reader.
As a counterscreen the same experiment was performed in the presence of 10 ng/ml murine IL3.
as §1, with “a 96” for “a 384”, “plate, 180” for “plate, 100 nl of compound dilution in DMSO was sprayed before adding 50”, “containing 10000” for “containing 20000”, “Ba/F3-FGFR3-transfected cells were pipette and 20 μl of compound dilution in DMSO was added.” for “Ba/F3-FGFR3-transfected cells.”, “hours, 40” for “hours, 10”
(In general: Counterscreens check selectivity or assay interference.)

For assay [3], the system named is Ba/F3-Flt3-transfected cells in the presence of 10 ng/ml murine IL3. The experiment in a line: Ba/F3-Flt3 (plus IL3) cellular proliferation counterscreen, Alamar Blue. The following applies: Mus musculus; plus 10 ng/ml murine IL3; read-out: BAF3-FLT3 (PLUS IL3) 384 well pIC50 (converted).
Assay [4] deals with Ba/F3-FGFR4-transfected cells (Homo sapiens, UniProt P22455). Description: Ba/F3-FGFR4 cellular proliferation assay, Alamar Blue. In a few lines:
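Ba/F3 cells transfected with FGFR4, 20000 cells/well in phenol red-free RPMI-1640 with 10% FBS, were exposed to compound for 24 h at 37° C, 5% CO2. Alamar Blue (resazurin) was then added for 4 h, and fluorescence was read at ex 540/em 590 nm.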

Bounds are passed on as bounds.

Chain of Ba/F3-FGFR4-transfected cells (P22455 whole entry, change not shown): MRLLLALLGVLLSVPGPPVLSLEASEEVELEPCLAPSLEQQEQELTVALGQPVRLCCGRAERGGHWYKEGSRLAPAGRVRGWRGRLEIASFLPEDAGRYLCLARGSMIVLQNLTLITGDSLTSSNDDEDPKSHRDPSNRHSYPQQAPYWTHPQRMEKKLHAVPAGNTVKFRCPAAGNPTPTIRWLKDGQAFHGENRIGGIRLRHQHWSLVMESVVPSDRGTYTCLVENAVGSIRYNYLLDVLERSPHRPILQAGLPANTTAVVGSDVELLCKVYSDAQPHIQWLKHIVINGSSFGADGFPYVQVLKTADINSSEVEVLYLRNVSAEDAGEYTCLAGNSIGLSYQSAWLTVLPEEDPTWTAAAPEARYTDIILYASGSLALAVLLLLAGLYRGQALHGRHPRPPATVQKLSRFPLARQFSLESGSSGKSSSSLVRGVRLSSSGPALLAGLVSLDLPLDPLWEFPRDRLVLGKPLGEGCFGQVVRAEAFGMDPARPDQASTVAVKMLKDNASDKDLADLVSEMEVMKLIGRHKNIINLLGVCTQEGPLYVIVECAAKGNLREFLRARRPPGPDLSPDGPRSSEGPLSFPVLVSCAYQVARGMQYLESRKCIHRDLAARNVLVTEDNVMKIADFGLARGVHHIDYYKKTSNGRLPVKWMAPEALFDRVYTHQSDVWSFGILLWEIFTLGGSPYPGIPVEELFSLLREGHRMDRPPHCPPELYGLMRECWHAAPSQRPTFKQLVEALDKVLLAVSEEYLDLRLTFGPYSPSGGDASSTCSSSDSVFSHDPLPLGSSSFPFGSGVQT
Chain of Ba/F3-FGFR3-transfected cells (P22607 whole entry, change not shown): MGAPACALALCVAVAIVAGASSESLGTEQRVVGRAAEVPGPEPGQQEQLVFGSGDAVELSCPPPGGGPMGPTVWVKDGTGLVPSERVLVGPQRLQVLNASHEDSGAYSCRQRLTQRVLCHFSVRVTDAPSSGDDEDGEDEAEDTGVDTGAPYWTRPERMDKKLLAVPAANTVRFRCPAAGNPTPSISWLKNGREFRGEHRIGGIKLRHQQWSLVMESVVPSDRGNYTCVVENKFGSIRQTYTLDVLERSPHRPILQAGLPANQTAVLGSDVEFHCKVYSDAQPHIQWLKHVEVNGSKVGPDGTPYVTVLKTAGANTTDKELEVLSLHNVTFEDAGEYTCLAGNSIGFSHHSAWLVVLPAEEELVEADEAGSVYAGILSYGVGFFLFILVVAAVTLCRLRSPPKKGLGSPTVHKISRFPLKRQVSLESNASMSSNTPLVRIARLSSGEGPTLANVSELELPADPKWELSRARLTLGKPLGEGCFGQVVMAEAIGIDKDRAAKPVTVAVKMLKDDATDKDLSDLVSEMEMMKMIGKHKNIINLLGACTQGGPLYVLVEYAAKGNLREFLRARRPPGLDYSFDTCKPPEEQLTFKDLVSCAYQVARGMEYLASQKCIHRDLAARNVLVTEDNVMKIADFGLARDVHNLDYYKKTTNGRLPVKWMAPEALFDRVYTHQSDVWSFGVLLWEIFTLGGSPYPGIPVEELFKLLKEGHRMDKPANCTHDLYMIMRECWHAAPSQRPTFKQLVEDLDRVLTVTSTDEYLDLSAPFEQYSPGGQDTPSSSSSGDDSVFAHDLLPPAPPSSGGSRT

For `COc1cc(OC)cc(N(CCNC(C)C)c2ccc3ncc(C(=O)NCCCN4CCCCC4)nc3c2)c1` [Compound 182], the “BAF3-FGFR 3 (MIN IL3) 384 well pIC50” value in assay [1] was determined as 5.64. Besides, the IC50 in assay [2] was roughly 6.92 µM; in assay [3], greater than 10 µM. The “BAF3-FGFR4 pIC50” value in assay [4] stood at 5.7.
Regarding `COc1cc(OC)cc(N(CC#Cc2ncccc2OC)c2ccc3ncc(-c4cccnc4)nc3c2)c1` [Compound 183], the “BAF3-FGFR 3 (MIN IL3) 384 well pIC50” value in assay [1] was 7.1. In addition, the IC50 in assay [2] and in assay [3] was greater than 10 µM each time. Besides, in assay [4], the “BAF3-FGFR4 pIC50” value is reported as roughly 6.5.
`COc1cc(OC)cc(N(CCO)c2ccc3ncc(C(=O)Nc4cnn(C)c4)nc3c2)c1` [Compound 184]: the “BAF3-FGFR 3 (MIN IL3) 384 well pIC50” value in assay [1] is 5.27. For the same compound, the IC50 in assay [2] and in assay [3] was greater than 10 µM each time. For the same compound, the “BAF3-FGFR4 pIC50” value in assay [4] is 5.1.
`COc1cc(OC)cc(N(CCO)c2ccc3ncc(C4CCN(C(=O)OC(C)(C)C)CC4)nc3c2)c1` [Compound 185]: the “BAF3-FGFR 3 (MIN IL3) 384 well pIC50” value in assay [1] came out at 5.01. The IC50 in assay [2] and in assay [3] was greater than 10 µM throughout. Further, the “BAF3-FGFR4 pIC50” value in assay [4] is given as less than 5.
Turning to `COc1cc(OC)cc(N(CCCO)c2ccc3ncc(-c4ccnc(C(=O)NCCOCCO)c4)nc3c2)c1` [Compound 186], the “BAF3-FGFR 3 (MIN IL3) 384 well pIC50” value in assay [1] was found to be 5.8. The IC50 in assay [2] and in assay [3] was greater than 10 µM in each case. Also, the “BAF3-FGFR4 pIC50” value in assay [4] turned out to be 5.57.
